These results are taken from patent US20110166123A1, “NOVEL COMPOSITIONS AND METHODS OF USE” (priority 2008, published 2011).

For this test, the system named is human immunodeficiency virus type 1 (HIV-1). The experiment in a line: microbe, parasite or virus in culture. Type of test: cell-based. The conditions noted are these: Human immunodeficiency virus 1, HeLa, 48 h, HIV-1 luciferase reporter, HeLa cells, 48 hours after infection.
In turn, `COc1ccc(COc2cc3c(=O)c(C(=O)O)cn([C@H](CO)C(C)(C)C)c3cc2OC)cc1` [Example 29E, (S)-1-(1-hydroxy-3,3-dimethylbutan-2-yl)-7-methoxy-6-(4-methoxybenzyloxy)-4-oxo-1,4-dihydroquinoline-3-carboxylic acid] showed an EC50 above 100 nM. In the case of `CC[C@@H](CO)n1cc(C(=O)O)c(=O)c2cc(Cc3cccc(Cl)c3F)ncc21` [Example 5G], the EC50 was above 100 nM. The result for `COc1cc2c(cc1NCc1c(F)cccc1F)c(=O)c(C(=O)O)cn2[C@H](CO)C(C)C` [Example 21C, (S)-6-(2,6-difluorobenzylamino)-1-(1-hydroxy-3-methylbutan-2-yl)-7-methoxy-4-oxo-1,4-dihydroquinoline-3-carboxylic acid] reads 10 to 100 nM; that for `CC(C)(C)[C@@H](CO)n1cc(C(=O)O)c(=O)c2cc(OCc3c(F)cc(F)cc3F)ccc21` [Example 23C, (S)-1-(1-hydroxy-3,3-dimethylbutan-2-yl)-4-oxo-6-(2,4,6-trifluorobenzyloxy)-1,4-dihydroquinoline-3-carboxylic acid], 10 to 100 nM. `CC(C)(C)[C@@H](CO)n1cc(C(=O)O)c(=O)c2cc(NCc3ccc(F)cc3)c(F)cc21` [Example 26A, (S)-7-fluoro-6-(4-fluorobenzylamino)-1-(1-hydroxy-3,3-dimethylbutan-2-yl)-4-oxo-1,4-dihydroquinoline-3-carboxylic acid]: the EC50 was in the range of 10 to 100 nM. With `COCCN1CCN(c2nc3c(cc2Cc2cccc(Cl)c2F)c(=O)c(C(=O)O)cn3[C@H](CO)C(C)(C)C)CC1` [Example 2AA], the EC50 is 10 to 100 nM.

Compound `COc1nc2c(cc1CNC1CCCc3ccccc31)c(=O)c(C(=O)O)cn2[C@H](CO)C(C)C` (stereo partly drawn) [Example 12F] had an EC50 above 100 nM.

`COc1nc2c(cc1NCc1cccc(Cl)c1F)c(=O)c(C(=O)O)cn2[C@H](CO)C(C)C` [Example 20B, (S)-6-(3-chloro-2-fluorobenzylamino)-1-(1-hydroxy-3-methylbutan-2-yl)-7-methoxy-4-oxo-1,4-dihydro-1,8-naphthyridine-3-carboxylic acid] had an EC50 above 100 nM. To `CCCn1cc(C(=O)O)c(=O)c2c(N)nc(SC)nc21` [Example 7B] belongs above 100 nM; to `CC(C)(C)[C@@H](CO)n1cc(C(=O)O)c(=O)c2cc(Cc3cccc(Cl)c3F)c(OCCN3CCCC3)nc21` [Example 2O], 10 to 100 nM. To `CC(C)(C)[C@@H](CO)n1cc(C(=O)O)c(=O)c2cc(Cc3cccc(Cl)c3F)c(N3CCC(O)CC3)nc21` [Example 2X] belongs 10 to 100 nM; to `COCCNc1nc2c(cc1Cc1cccc(Cl)c1F)c(=O)c(C(=O)O)cn2[C@H](CO)C(C)(C)C` [Example 2T], below 10 nM; to `CC(C)(C)[C@@H](CO)n1cc(C(=O)O)c(=O)c2cc(NCc3c(F)cc(F)cc3F)c(Cl)cc21` [Example 26D, (S)-7-chloro-1-(1-hydroxy-3,3-dimethylbutan-2-yl)-4-oxo-6-(2,4,6-trifluorobenzylamino)-1,4-dihydroquinoline-3-carboxylic acid], 10 to 100 nM. The result for `CC(C)(C)[C@@H](CO)n1cc(C(=O)O)c(=O)c2cc(Cc3cccc(Cl)c3F)c(NCCCN3CCCC3=O)nc21` [Example 2EE] reads below 10 nM.

As for `CC(C)(C)[C@@H](CO)n1cc(C(=O)O)c(=O)c2cc(Cc3cccc(Cl)c3F)c(NCCCN3CCOCC3)nc21` [Example 2DD], the concentration giving a half-maximal response (EC50) was below 10 nM. The compound `CC(C)[C@@H](CO)n1cc(C(=O)O)c(=O)c2cc(NCc3ccc(F)cc3)c(N3CCOCC3)nc21` [Example 24A, (S)-6-(4-fluorobenzylamino)-1-(1-hydroxy-3-methylbutan-2-yl)-7-morpholino-4-oxo-1,4-dihydro-1,8-naphthyridine-3-carboxylic acid] registered an EC50 above 100 nM. To `COCCOc1nc2c(cc1Cc1cccc(Cl)c1F)c(=O)c(C(=O)O)cn2[C@H](CO)C(C)(C)C` [Example 2H] belongs below 10 nM.

Consider `CC(C)(C)[C@@H](CO)n1cc(C(=O)O)c(=O)c2cc(OCc3ccc(F)cc3F)ccc21` [Example 23B, (S)-6-(2,4-difluorobenzyloxy)-1-(1-hydroxy-3,3-dimethylbutan-2-yl)-4-oxo-1,4-dihydroquinoline-3-carboxylic acid], for which the EC50 was above 100 nM. In turn, `COc1nc2c(cc1Nc1ccc(F)cc1)c(=O)c(C(=O)O)cn2[C@H](CO)C(C)C` [Example 20QQ, (S)-6-(4-fluorophenylamino)-1-(1-hydroxy-3-methylbutan-2-yl)-7-methoxy-4-oxo-1,4-dihydro-1,8-naphthyridine-3-carboxylic acid] showed an EC50 above 100 nM.

Turning to `COc1nc2c(cc1Cc1cccc(Cl)c1F)c(=O)c(C(=O)O)cn2[C@H]1CCCC[C@@H]1O` [Example 1P], the EC50 is above 100 nM. To `COc1nc2c(cc1Cc1ccc(F)c(F)c1)c(=O)c(C(=O)O)cn2[C@H](CO)C(C)C` [Example 1B] belongs above 100 nM; to `COc1nc2c(cc1NCc1ccc(F)c(F)c1F)c(=O)c(C(=O)O)cn2[C@H](CO)C(C)C` [Example 20EE, (S)-1-(1-hydroxy-3-methylbutan-2-yl)-7-methoxy-4-oxo-6-(2,3,4-trifluorobenzylamino)-1,4-dihydro-1,8-naphthyridine-3-carboxylic acid], above 100 nM; to `COc1nc2c(cc1NCCc1cccc(Cl)c1)c(=O)c(C(=O)O)cn2[C@H](CO)C(C)C` [Example 20G, (S)-6-(3-chlorophenethylamino)-1-(1-hydroxy-3-methylbutan-2-yl)-7-methoxy-4-oxo-1,4-dihydro-1,8-naphthyridine-3-carboxylic acid], above 100 nM. Turning to `CC(C)[C@@H](CO)n1cc(C(=O)O)c(=O)c2cc(Cc3ccccc3F)cnc21` [Example 4B], the EC50 is above 100 nM. The compound `CCOc1nc2c(cc1NCc1ccc(F)cc1)c(=O)c(C(=O)O)cn2[C@H](CO)C(C)C` [Example 27A, (S)-7-Ethoxy-6-(4-fluorobenzylamino)-1-(1-hydroxy-3-methylbutan-2-yl)-4-oxo-1,4-dihydro-1,8-naphthyridine-3-carboxylic acid] came in with a half-maximal effective concentration (EC50) above 100 nM.

For `CC(C)[C@@H](CO)n1cc(C(=O)O)c(=O)c2nc(Cc3cccc(Cl)c3F)c(O)nc21` [Example 11A, (S)-2-(3-chloro-2-fluorobenzyl)-3-hydroxy-5-(1-hydroxy-3-methylbutan-2-yl)-8-oxo-5,8-dihydropyrido[2,3-b]pyrazine-7-carboxylic acid], the EC50 was above 100 nM. As for `COc1nc2c(cc1NCc1ccccc1)c(=O)c(C(=O)O)cn2[C@H](CO)C(C)C` [Example 20O, (S)-6-(benzylamino)-1-(1-hydroxy-3-methylbutan-2-yl)-7-methoxy-4-oxo-1,4-dihydro-1,8-naphthyridine-3-carboxylic acid], the EC50 is above 100 nM. The result for `CCCC[C@@H](CO)n1cc(C(=O)O)c(=O)c2cc(Cc3cccc(Cl)c3F)ncc21` [Example 5J] reads above 100 nM; that for `COc1nc2c(cc1-c1cccc(OCc3ccccc3)c1)c(=O)c(C(=O)O)cn2[C@H](CO)C(C)C` [Example 17L], above 100 nM; that for `COc1nc2c(cc1NCc1cccc(F)c1F)c(=O)c(C(=O)O)cn2[C@H](CO)C(C)C` [Example 20BB, (S)-6-(2,3-difluorobenzylamino)-1-(1-hydroxy-3-methylbutan-2-yl)-7-methoxy-4-oxo-1,4-dihydro-1,8-naphthyridine-3-carboxylic acid], above 100 nM.
